Several values for one entry are separate records, joined by “and”; a condition that tells them apart may be missing. Identical values can stand only once.

This data set concerns MDA-MB-231. As to the kind of experiment: shRNA barcode abundance ratio t_end/t_zero (depletion over 4 weeks of proliferation) (log2 ratio); higher = less depletion (weaker anti-proliferative effect of the shRNA). The conditions noted are these: time after t zero 28 days. As for the experimental part:
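Pooled lentiviral negative-selection screen of 305 pGIPZ shRNAs (Open Biosystems V2LHS clones; the 21-nt half-hairpin sense stem is embedded in a mir-30 scaffold) in MDA-MB-231 breast carcinoma cells, infected at MOI 0.3 with 0.5 ug/ml puromycin selection. Barcode abundance was read on barcode tiling microarrays (six 25-nt probes per 60-nt barcode) at t_zero (5 days post-infection) and t_end (33 days; 28 days of culture after t_zero). Values are median-normalised t_end/t_zero signal ratios, averaged over the tiling probes that passed a 10-fold background filter, from three biological replicates.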
As to “AAGCGTGCTCTCCGAAGATAA (targeted gene: SORT1)”, the “shRNA barcode abundance ratio t end/t zero (log2)” value came out at 0.237.

For “ACAGATATTTACTTCTGCAAA (targeted gene: CD28)”, the “shRNA barcode abundance ratio t end/t zero (log2)” value was determined as 0.143.

Take “ACAGTTTGAGTCAACTAGAAT (targeted gene: CD28)”: the “shRNA barcode abundance ratio t end/t zero (log2)” value worked out at 0.508.

As for “ACCCATTCTTCCCGTTCTTAA (targeted gene: HDAC1)”, the “shRNA barcode abundance ratio t end/t zero (log2)” value stood at 0.135.

“ACCTGCAGAATAATAAAGTCA (targeted gene: S100A8)”: the “shRNA barcode abundance ratio t end/t zero (log2)” value is -0.295.

On to “ACGCTCTGTGGCCAGTGTAAA (targeted gene: SULF2)”, for which the “shRNA barcode abundance ratio t end/t zero (log2)” value was found to be 0.249.

On to “ACGCTGATCGAGAATGGAGAA (targeted gene: NUP62)”, for which the “shRNA barcode abundance ratio t end/t zero (log2)” value was -0.334.

“ACTCTAATCTCCACATTTATA (targeted gene: XIAP)”: the “shRNA barcode abundance ratio t end/t zero (log2)” value is 0.0933.

For the sequence “ACTGCTGTACTGGTTTGCAAA (targeted gene: BNIP2)”, the “shRNA barcode abundance ratio t end/t zero (log2)” value turned out to be 0.104.

On to “ACTTACACTTAGAAATTAAAT (targeted gene: XIAP)”, for which the “shRNA barcode abundance ratio t end/t zero (log2)” value was 0.473.

For “ACTTCAGAAATGGCACGATAA (targeted gene: AATF)”, the “shRNA barcode abundance ratio t end/t zero (log2)” value is 0.24.

With “AGACATAAAGCCATCTCTTAT (targeted gene: NME5)”, the “shRNA barcode abundance ratio t end/t zero (log2)” value turned out to be 0.11.

Take “AGAGAGAACTGCTCAGTAATT (targeted gene: BRE)”: the “shRNA barcode abundance ratio t end/t zero (log2)” value came to 0.237.

For the sequence “AGCATTGTCATGAGCTTAATA (targeted gene: API5)”, the “shRNA barcode abundance ratio t end/t zero (log2)” value came out at 0.169.

On to “AGGCAATTTATCTTGATGTGA (targeted gene: FAIM3)”, for which the “shRNA barcode abundance ratio t end/t zero (log2)” value worked out at 0.137.

Consider “AGGCCTAGAGGTAACCAATAA (targeted gene: PRDX2)”, for which the “shRNA barcode abundance ratio t end/t zero (log2)” value was -0.0855.

As to “CAACGGAACTTGTTTGCTCTT (targeted gene: SOCS3)”, the “shRNA barcode abundance ratio t end/t zero (log2)” value is -0.536.

As for “CACCAGCACTTTATACACTTC (targeted gene: RHOC)”, the “shRNA barcode abundance ratio t end/t zero (log2)” value was found to be 0.652.

With “CAGCTTTCAGTCAGATGTATA (targeted gene: BRAF)”, the “shRNA barcode abundance ratio t end/t zero (log2)” value stood at 0.489.

In the case of “CATCTCAGTATGCATGGTATA (targeted gene: CFLAR)”, the “shRNA barcode abundance ratio t end/t zero (log2)” value is -0.976.

As for “CCAAAGCATTTCATTGAGAAT (targeted gene: TOPORS)”, the “shRNA barcode abundance ratio t end/t zero (log2)” value is -0.193.

For the sequence “CCAAATTATGTGTTTCCGAAA (targeted gene: IGF1R)”, the “shRNA barcode abundance ratio t end/t zero (log2)” value turned out to be 0.502.

As to “CCAAATTGTGTTTGATGGATT (targeted gene: ESR1)”, the “shRNA barcode abundance ratio t end/t zero (log2)” value was found to be 0.202.

Take “CCAACACGTTTGAACTGAAAT (targeted gene: BIRC3)”: the “shRNA barcode abundance ratio t end/t zero (log2)” value was 0.578.

With “CCAACATATCTCACTCTAGAA (targeted gene: BARD1)”, the “shRNA barcode abundance ratio t end/t zero (log2)” value was 0.531.

In the case of “CCAACCACTTCATTCTTGAAA (targeted gene: IL10)”, the “shRNA barcode abundance ratio t end/t zero (log2)” value was 0.022 and 0.0479.

As to “CCAACTAATCTTCGAATCGAA (targeted gene: SOCS2)”, the “shRNA barcode abundance ratio t end/t zero (log2)” value stood at 0.157.

Regarding “CCAAGTAGACTCACTCCTTAA (targeted gene: BAG4)”, the “shRNA barcode abundance ratio t end/t zero (log2)” value was -0.102.

For the sequence “CCAATGATGCTGCTCAAGTTA (targeted gene: ABCB1)”, the “shRNA barcode abundance ratio t end/t zero (log2)” value stood at 0.272.

Take “CCAATTCAAGTGATCCGCAAA (targeted gene: BAG3)”: the “shRNA barcode abundance ratio t end/t zero (log2)” value worked out at 0.175.

Take “CCACAGATGTTCATAGACAAT (targeted gene: NFKB1)”: the “shRNA barcode abundance ratio t end/t zero (log2)” value was found to be 0.547.

As to “CCACCCTGAGCCATTATCTAA (targeted gene: PSEN1)”, the “shRNA barcode abundance ratio t end/t zero (log2)” value came to 0.146.

In the case of “CCACCTGGACTCCTATGAGAA (targeted gene: SOCS3)”, the “shRNA barcode abundance ratio t end/t zero (log2)” value stood at 0.145.

Consider “CCACGCGACATCCAATCCATA (targeted gene: IL3)”, for which the “shRNA barcode abundance ratio t end/t zero (log2)” value was -0.0678.

“CCAGAAGAGCCTATTACATCT (targeted gene: SOCS3)”: the “shRNA barcode abundance ratio t end/t zero (log2)” value worked out at 0.25.

For “CCAGAATCTCTGGGAATATAA (targeted gene: BFAR)”, the “shRNA barcode abundance ratio t end/t zero (log2)” value was -0.109.

Turning to “CCAGACTCAGTTCACTGCAAA (targeted gene: MALT1)”, the “shRNA barcode abundance ratio t end/t zero (log2)” value was -0.00481.

For “CCAGAGAATTTGCTTACCAAA (targeted gene: RALBP1)”, the “shRNA barcode abundance ratio t end/t zero (log2)” value amounted to 0.116.
